According to patent US20250099402A1, “COMPOSITIONS OF ASPIRIN AND KETAMINE” (Vitalis Analgesics LLC, priority 2022, published 2025):
Where two headings read alike, the source gives them in different places.

Tests used:
[1] = system: acute musculoskeletal pain; settings: data collected from similar trials, same protocol, scales, center and team, agents and doses per Table 5, FIG. 1, cited from earlier work
[2] = cited from earlier work
[3] = system: acute pain due to fracture; settings: intravenous, public domain data; cited from earlier work
[4] = Ketamine pharmacokinetics and onset of action by route (background); settings: ketamine given concurrently through the GI
[5] = Compatibility of ketamine and aspirin with spray coating solvents; settings: alcohol solvents for ketamine, aqueous solutions for aspirin
[6] = in vivo; cited from earlier work
[7] = cited from earlier work; remark: listed apart in the source

CN1CC[C@]23c4c5ccc(O)c4O[C@H]2[C@@H](O)C=C[C@H]3[C@H]1C5 [IV morphine, Morphine]
reduction of acute musculoskeletal pain, comparator agents [1]: 5.1 points

CNC1(c2ccccc2Cl)CCCCC1=O (centres unmarked) [ketamine]
elimination half-life ([2]; in vivo): 2 to 3 h | bioavailability, intramuscular injection ([2]; intramuscular): about 93% | bioavailability, IV ([2]; intravenous): about 100% | time to maximal concentrations, orally ([2]; oral): 30 min | bioavailability, oral route ([2]; oral, listed as oral ketamine): 18-20% | time of peak pain reduction effect [3]: about 5 mins | reduction of acute musculoskeletal pain, comparator agents ([1]; listed as intranasal (nebulized) ketamine): about 4 points | serum peak concentration later than directly absorbed ketamine [4]: 15 to 20 min | stability in spray coating solvent [5]: reacted with alcohol solvents leading to impurities

NC1(c2ccccc2Cl)CCCCC1=O (centres unmarked) [norketamine]
potency as an anesthetic relative to ketamine [6]: one-third to one-fifth | plasma levels relative to ketamine ([2]; following oral administration of ketamine): three times higher

CC(C)Cc1ccc(C(C)C(=O)O)cc1 (centres unmarked) [oral ibuprofen, Ibuprofen]
reduction of acute musculoskeletal pain, comparator agents [1]: 2 points

CN1CC[C@]23c4c5ccc(O)c4O[C@H]2[C@@H](O)C=C[C@H]3[C@H]1C5.O=S(=O)(O)O [oral morphine, Morphine Sulfate]
reduction of acute musculoskeletal pain, comparator agents [1]: about 4 points

N[C@@H]1c2cccnc2[C@H](OC(=O)N2CCC(n3c(=O)[nH]c4ncccc43)CC2)CC[C@H]1c1cccc(F)c1F [rimegepant]
absolute oral bioavailability ([7]; in vivo, po): approximately 64% | eliminated in unchanged form ([7]; in vivo): ~77 % of the dose | time of maximum concentration ([7]; oral administration of NURTEC Orally Disintegrating Tablet): 1.5 h
